# Measured values as given in publication PMC5681660, “Reduced hepatitis B and D viral entry using clinically applied drugs as novel inhibitors of the bile acid transporter NTCP” (Scientific Reports, 2017).
# Structures can show the parent of a compound that is named as a salt. Where two headings read alike, the source gives them in different places. Non-standard residues stand in square brackets, D forms with d. Residues, ends and D or L forms follow the SMILES beside them. *: point of attachment. Sta = CC(C)C[C@H](N)[C@@H](O)CC(=O)O; pGlu = O=C1CC[C@@H](C(=O)O)N1; Isovaleryl = CC(C)CC(=O)*; Thz = O=C(O)[C@@H]1CSCN1
# Legend:
# human NTCP [1] = molecular target: T1, human NTCP (Homo sapiens, UniProt Q14973); assay: Screening fluorescent competitive Myrcludex B-FITC binding assay (96-well, 10 µM drug)
# T1 sequence (Q14973 1-349): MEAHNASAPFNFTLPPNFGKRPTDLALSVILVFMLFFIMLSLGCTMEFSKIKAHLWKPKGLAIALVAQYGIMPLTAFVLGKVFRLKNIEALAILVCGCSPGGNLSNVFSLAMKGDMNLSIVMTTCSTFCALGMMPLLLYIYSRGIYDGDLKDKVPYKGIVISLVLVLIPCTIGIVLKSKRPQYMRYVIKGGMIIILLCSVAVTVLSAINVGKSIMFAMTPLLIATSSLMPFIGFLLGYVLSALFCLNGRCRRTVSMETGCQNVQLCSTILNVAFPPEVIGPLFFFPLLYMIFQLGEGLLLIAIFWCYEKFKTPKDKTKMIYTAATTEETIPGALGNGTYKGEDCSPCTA
# human NTCP [2] = molecular target: T1, human NTCP; assay: Screening taurocholate uptake assay (96-well, [14C]taurocholate, 10 µM drug)
# [3] = Prestwick library screen, 10 µM drug, B-score of Myrcludex B-FITC binding
# [4] = Prestwick library screen, 10 µM drug, B-score of taurocholate uptake
# [5] = combined ranking from functional and binding assay B-scores
# [6] = screen, 10 µM drug, Myrcludex B-FITC binding
# [7] = combined ranking from functional and binding screening assays
# [8] = screen, 10 µM drug, taurocholate uptake
# [9] = Prestwick library screen, Myrcludex B-FITC binding, 10 µM drug
# [10] = Prestwick library screen, taurocholate uptake, 10 µM drug
# [11] = ranking score beside the functional and binding assay B-scores of the screen
Structure (SMILES),B-score binding assay (human NTCP [1]; [3]),B-score functional assay (human NTCP [2]; [4]),Ranking score (human NTCP [2]; [5]),B-score binding assay (human NTCP [1]; [6]),Ranking score (human NTCP [2]; [7]),B-score functional assay (human NTCP [2]; [8]),B-score binding assay (human NTCP [1]; [9]),B-score functional assay (human NTCP [2]; [10]),Ranking score (human NTCP [2]; [11]),further results
NC[C@@H]1O[C@H](O[C@H]2[C@@H](O)[C@H](O[C@@H]3[C@@H](O)[C@H](N)C[C@H](N)[C@H]3O[C@H]3O[C@H](CO)[C@@H](O)[C@H](O)[C@H]3N)O[C@@H]2CO)[C@H](N)[C@@H](O)[C@@H]1O [Paromomycin sulfate],1.613,0.247,976.576,,,,,,,
Fc1ccc([C@@H]2CCNC[C@H]2COc2ccc3c(c2)OCO3)cc1 [Paroxetine Hydrochloride],1.07,0.185,918.273,,,,,,,
CN1C(C)(C)CCCC1(C)C [Pempidine tartrate],1.02,1.102,1065.26,,,,,,,
CC(C)(C)NC[C@H](O)COc1ccccc1C1CCCC1 [Penbutolol sulfate],,,,-1.346,368.646,0.103,,,,
O=C(O)CN(CCN(CC(=O)O)CC(=O)O)CCN(CC(=O)O)CC(=O)O [Pentetic acid],,,,-0.525,406.409,-0.313,,,,
CCCC(C)C1(CC)C(=O)NC(=O)NC1=O (stereo not drawn) [Pentobarbital],,,,,,,,,,B-score binding assay (human NTCP [1]): 1.244; B-score functional assay (human NTCP [2]): -0.299; Ranking score (human NTCP [2]): 697.378
C[N+]1(CCCCC[N+]2(C)CCCC2)CCCC1.O=C([O-])C(O)C(O)C(=O)O.O=C([O-])C(O)C(O)C(=O)O [Pentolinium bitartrate],,,,-0.512,451.889,-0.089,,,,
C1CCc2nnnn2CC1 [Pentylenetetrazole],,,,,,,-0.037,0.223,696.951,
CC(C)CC(=O)N[C@H](C(=O)N[C@H](C(=O)N[C@@H](CC(C)C)[C@@H](O)CC(=O)N[C@@H](C)C(=O)N[C@@H](CC(C)C)[C@@H](O)CC(=O)O)C(C)C)C(C)C [Pepstatin A] (Isovaleryl-VV[Sta]A[Sta]-OH),,,,,,,-0.237,2.688,763.991,
CCCN1C[C@H](CSC)C[C@@H]2c3cccc4[nH]cc(c34)C[C@H]21 [Pergolide mesylate],,,,,,,0.514,-0.089,708.625,
C1CCC(C(CC2CCCCN2)C2CCCCC2)CC1 (stereo not drawn) [Perhexiline maleate],,,,-0.916,400.32,-0.011,,,,
CCC[C@H](N[C@@H](C)C(=O)N1[C@H](C(=O)O)C[C@@H]2CCCC[C@@H]21)C(=O)OCC [Perindopril],,,,1.021,319.862,-2.428,,,,
O=C1[C@H]2CCCC[C@H]2C(=O)N1CCCCN1CCN(c2nsc3ccccc23)CC1 [Perospirone],1.438,0.093,917.333,,,,,,,
CCOc1ccc(NC(C)=O)cc1 [Phenacetin],0.917,0.074,860.113,,,,,,,
NNCCc1ccccc1 [Phenelzine sulfate],,,,-0.533,418.784,-0.221,,,,
CC(Oc1ccccc1)C(=O)N[C@@H]1C(=O)N2[C@@H]1SC(C)(C)[C@@H]2C(=O)[O-].[K+] (stereo partly drawn) [Phenethicillin potassium salt],,,,-0.048,437.958,-0.676,,,,
CN(C)CCC(c1ccccc1)c1ccccn1 (stereo not drawn) [Pheniramine maleate],,,,-0.017,447.397,-0.685,,,,
CN1C(=O)CC(c2ccccc2)C1=O (stereo not drawn) [Phensuximide],,,,-1.044,401.836,0.043,,,,
CC(C)(N)Cc1ccccc1.Cl [Phentermine hydrochloride],0.892,2.461,1114.52,,,,,,,
Cc1ccc(N(CC2=NCCN2)c2cccc(O)c2)cc1 [Phentolamine hydrochloride],,,,,,,1.392,-0.082,785.945,
CCCCC1C(=O)N(c2ccccc2)N(c2ccccc2)C1=O [Phenylbutazone],,,,-0.956,440.765,0.138,,,,
CC(N)C(O)c1ccccc1 (stereo not drawn) [Phenylpropanolamine hydrochloride],,,,,,,,,,B-score binding assay (human NTCP [1]): -0.994; B-score functional assay (human NTCP [2]): 0.305; Ranking score (human NTCP [2]): 449.533
O=C(O)c1ccccc1C(=O)Nc1ccc(S(=O)(=O)Nc2nccs2)cc1 [Phthalylsulfathiazole],1.374,1.113,1099.94,,,,,,,

Structure (SMILES),B-score binding assay (human NTCP [1]; [3]),B-score functional assay (human NTCP [2]; [4]),Ranking score (human NTCP [2]; [5]),B-score binding assay (human NTCP [1]; [6]),Ranking score (human NTCP [2]; [7]),B-score functional assay (human NTCP [2]; [8]),B-score binding assay (human NTCP [1]; [9]),B-score functional assay (human NTCP [2]; [10]),Ranking score (human NTCP [2]; [11]),further results
COc1ccc(C(=O)NCc2cccnc2)cc1C(=O)NCc1cccnc1.O [Picotamide monohydrate],,,,,,,0.672,-0.041,752.987,
C=C(C)[C@@H]1[C@H]2OC(=O)[C@@H]1[C@]1(O)C[C@H]3O[C@]34C(=O)O[C@H]2[C@]14C [Picrotoxinin],,,,,,,0.17,0.075,754.999,
O=C1CC[C@@H](C(=O)N2CSC[C@H]2C(=O)O)N1 [Pidotimod] ([pGlu]-[Thz]-OH),0.063,1.132,884.212,,,,,,,
CC[C@@H]1C(=O)OC[C@@H]1Cc1cncn1C [Pilocarpine nitrate],0.358,0.794,931.987,,,,,,,
CC(N/C(=N\C#N)Nc1ccncc1)C(C)(C)C (stereo not drawn) [Pinacidil],,,,-0.477,332.839,-0.832,,,,
CC(C)NCC(O)COc1cccc2[nH]ccc12 (stereo not drawn) [Pindolol],,,,,,,0.992,-0.046,777.082,
CCn1cc(C(=O)O)c(=O)c2cnc(N3CCNCC3)nc21 [Pipemidic acid],,,,,,,0.325,-0.002,736.261,
CC[N+]1(C)CCCC(OC(=O)C(O)(c2ccccc2)c2ccccc2)C1 (stereo not drawn) [Pipenzolate bromide],0.291,2.623,1014.24,,,,,,,
CCN1CCCC(OC(=O)C(c2ccccc2)c2ccccc2)C1 (stereo not drawn) [Piperidolate hydrochloride],,,,-1.968,357.281,1.475,,,,
NC(=O)CN1CCCC1=O [Piracetam],,,,,,,-0.345,0.881,661.843,
Cc1nc2ccccn2c(=O)c1CCN1CCC(C(=O)c2ccc(F)cc2)CC1 [Pirenperone],,,,,,,3.342,-0.092,829.554,
CN1CCN(CC(=O)N2c3ccccc3C(=O)Nc3cccnc32)CC1 [Pirenzepine dihydrochloride],0.089,0.753,857.349,,,,,,,
Cl.c1cnc(N2CCN(Cc3ccc4c(c3)OCO4)CC2)nc1 [Piribedil hydrochloride],0.754,0.676,974.49,,,,,,,
CCn1cc(C(=O)O)c(=O)c2cnc(N3CCCC3)nc21 [Piromidic acid],0.041,1.197,874.684,,,,,,,
CN1C(C(=O)Nc2ccccn2)=C(O)c2ccccc2S1(=O)=O [Piroxicam],,,,,,,-0.312,0.754,662.993,
CC(C)(C)C(=O)OCOC(=O)[C@@H]1N2C(=O)[C@@H](/N=C/N3CCCCCC3)[C@H]2SC1(C)C [Pivmecillinam hydrochloride],,,,,,,0.838,-0.103,729.338,
CN1CCC(=C2c3ccccc3CCc3sccc32)CC1.O=C(O)CC(O)C(=O)O [Pizotifen malate],,,,,,,0.057,0.156,745.131,
CCCN[C@H]1CCc2nc(N)sc2C1 [Pramipexole dihydrochloride],,,,-0.164,303.528,-1.48,,,,
CCCCOc1ccc(OCCCN2CCOCC2)cc1 [Pramoxine hydrochloride],0.619,1.223,1022.18,,,,,,,
CC(C(=O)O)c1ccc2c(c1)Cc1cccnc1O2 (stereo not drawn) [Pranoprofen],,,,,,,1.204,-0.016,817.912,
C[C@]12C=CC(=O)C=C1CC[C@@H]1[C@@H]2C(=O)C[C@@]2(C)[C@H]1CC[C@]2(O)C(=O)CO [Prednisone],,,,0.54,427.034,-1.367,,,,
CC(C)C[C@H](CN)CC(=O)O [Pregabalin],0.027,1.204,863.391,,,,,,,
